Experimental findings from ChEMBL document CHEMBL1201862, “PubChem BioAssay data set” (2004) are described below.

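Cells were grown in 96-well plates and exposed to each compound for 48 hours at five concentrations; endpoints were interpolated linearly between bracketing concentrations, or set to the highest concentration if not reached. GI50 is the concentration that inhibits growth by half.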 Activity calls are given as the source filed them. Rule as the data show it: active = GI50 up to about 1.1 µM and inactive = higher. Some results are limits rather than exact numbers.

Test systems include CAKI-1; COLO 205; RXF 393; IGROV-1; 786-0; SF-295; MOLT-4; HCT-15; UO-31; SK-OV-3; HOP-62; LOX IMVI; TK-10; SK-MEL-2; RPMI-8226.
Common to all, as to assay: growth of human tumour cells (NCI), 48 h

For `Cc1nc2ccccc2c(=O)n1/N=C(\N=N\c1ccc(Cl)cc1)c1ccc(N(C)C)cc1`, the GI50 with CAKI-1 is > 100 µM (inactive); in the assay with COLO 205 it was > 100 µM (inactive); with RXF 393, 80.4 µM (inactive); in the assay with IGROV-1, > 100 µM (inactive); in the assay on 786-0, > 100 µM (inactive); with SF-295, > 100 µM (inactive). Also, the GI50 with MOLT-4 was 61.1 µM (inactive); in the assay with HCT-15 it was above 100 µM; in the assay with UO-31, 21.8 µM (inactive); with SK-OV-3 it was > 100 µM (inactive); in the assay with HOP-62, 66.4 µM (inactive); in the assay on LOX IMVI it was > 100 µM (inactive). Further, the GI50 with TK-10 was > 100 µM (inactive).
With `Cc1ccc(NC(=O)CC/C(CC(=O)C(C)(C)C)=N/NC(=O)C[N+](C)(C)C)cc1C`, the GI50 in the assay with CAKI-1 is > 100 µM (inactive); in the assay on COLO 205 it was > 100 µM (inactive); in the assay on RXF 393 it was > 100 µM (inactive); in the assay with IGROV-1 it was > 100 µM (inactive); in the assay with SK-MEL-2 it was > 100 µM (inactive); in the assay on 786-0, 18.2 µM (inactive). For the same compound, the GI50 in the assay on SF-295 is > 100 µM (inactive); with MOLT-4 it was > 100 µM (inactive); in the assay with HCT-15, above 100 µM; in the assay on UO-31, > 100 µM (inactive); with SK-OV-3, > 100 µM (inactive); with HOP-62, > 100 µM (inactive). For the same compound, the GI50 in the assay with LOX IMVI and in the assay with TK-10 was > 100 µM (inactive) each time.
Turning to `CCN(CC)CCCC(C)Nc1ccnc2ccc3nn(C)nc3c12` (stereo not drawn), the GI50 in the assay with CAKI-1 was > 100 µM (inactive); in the assay on COLO 205, 28.6 µM (inactive); with IGROV-1, > 100 µM (inactive); in the assay on 786-0 it was 37.3 µM (inactive); in the assay on SF-295 it was 44.7 µM (inactive); in the assay on MOLT-4, 25.3 µM (inactive). Further, the GI50 in the assay on UO-31 was 40 µM (inactive); with RPMI-8226, 53 µM (inactive); in the assay with SK-OV-3, > 100 µM (inactive); in the assay on HOP-62, 76.6 µM (inactive); in the assay on LOX IMVI, 17.9 µM (inactive); in the assay on TK-10, > 100 µM (inactive).
Consider `C=C(CO)CC(/C=C(\C)CC/C=C(\C)CCl)OC(C)=O` (stereo not drawn), for which the GI50 in the assay with COLO 205, in the assay on RXF 393, in the assay with IGROV-1, in the assay with SK-MEL-2, with 786-0 and in the assay with SF-295 was > 100 µM (inactive) in each case. Moreover, the GI50 is > 100 µM (inactive) in the assay with MOLT-4; above 100 µM in the assay on HCT-15; > 100 µM (inactive) in the assay on UO-31; > 100 µM (inactive) in the assay on RPMI-8226; > 100 µM (inactive) in the assay on SK-OV-3; > 100 µM (inactive) in the assay on HOP-62. The GI50 in the assay on LOX IMVI and in the assay with TK-10 was > 100 µM (inactive) in each case.
As for `O=C(/C=C/c1ccc(Cl)c(Cl)c1)c1ccc(F)cc1`, the GI50 is 18.5 µM (inactive) with CAKI-1; 23.3 µM (inactive) in the assay with COLO 205; 20.3 µM (inactive) in the assay with IGROV-1; 15.5 µM (inactive) in the assay with 786-0; 20.2 µM (inactive) in the assay with SF-295; 15.8 µM (inactive) in the assay with MOLT-4. Also, the GI50 with HCT-15 was 10.2 µM; in the assay with UO-31, > 100 µM (inactive); in the assay with RPMI-8226, 3.3 µM (inactive); with SK-OV-3 it was 29 µM (inactive); in the assay on HOP-62 it was > 100 µM (inactive); in the assay with TK-10, 25.4 µM (inactive).
Turning to `Nc1c(C(=O)Nc2ccccc2)[n+]([O-])c2ccccc2[n+]1[O-]`, the GI50 in the assay on CAKI-1 is 5.6 µM (inactive); in the assay on COLO 205, 15.5 µM (inactive); in the assay with IGROV-1, 18.4 µM (inactive); in the assay on SK-MEL-2, 15.8 µM (inactive); in the assay with 786-0, 13.6 µM (inactive); with SF-295, 20.9 µM (inactive). Besides, the GI50 was 18.7 µM (inactive) in the assay with MOLT-4; 13.1 µM with HCT-15; 21.2 µM (inactive) in the assay on UO-31; 20.6 µM (inactive) in the assay on RPMI-8226; > 100 µM (inactive) with SK-OV-3; 19.1 µM (inactive) in the assay with HOP-62. The GI50 was 12.3 µM (inactive) with LOX IMVI and 24.7 µM (inactive) with TK-10.
Take `O=C(Cc1ccccc1)N/N=C(/c1nc2ccc([N+](=O)[O-])cc2nc1O)C(O)c1ccco1` (stereo not drawn): the GI50 with CAKI-1 was 60.8 µM (inactive); with COLO 205, > 100 µM (inactive); in the assay on IGROV-1 it was > 100 µM (inactive); with SK-MEL-2, > 100 µM (inactive); in the assay on 786-0, > 100 µM (inactive); in the assay with SF-295, > 100 µM (inactive). Also, the GI50 is > 100 µM (inactive) with MOLT-4; 67.8 µM in the assay with HCT-15; > 100 µM (inactive) in the assay on UO-31; > 100 µM (inactive) in the assay on RPMI-8226; > 100 µM (inactive) in the assay with SK-OV-3; > 100 µM (inactive) in the assay with HOP-62. Moreover, the GI50 in the assay with LOX IMVI and in the assay with TK-10 was > 100 µM (inactive) throughout.
Consider `Clc1ccc(CCN2CCOCC2)c(Cl)c1`, for which the GI50 is > 100 µM (inactive) in the assay with CAKI-1; > 100 µM (inactive) with COLO 205; 12.5 µM (inactive) in the assay with RXF 393; > 100 µM (inactive) in the assay on IGROV-1; > 100 µM (inactive) in the assay with SK-MEL-2; > 100 µM (inactive) in the assay with 786-0. Besides, the GI50 is > 100 µM (inactive) in the assay with SF-295; > 100 µM (inactive) in the assay on MOLT-4; above 100 µM in the assay on HCT-15; > 100 µM (inactive) in the assay with UO-31; > 100 µM (inactive) in the assay with RPMI-8226; > 100 µM (inactive) in the assay on SK-OV-3. For the same compound, the GI50 with HOP-62 is > 100 µM (inactive).
With `COC(=O)C12C(=O)O[C@H](C)C1(O)C(C)C(=O)N2C` (stereo partly drawn), the GI50 with CAKI-1, in the assay with COLO 205, in the assay with RXF 393, in the assay on IGROV-1, with SK-MEL-2 and with 786-0 was > 100 µM (inactive) in each case. Also, the GI50 in the assay with SF-295 is > 100 µM (inactive); in the assay with MOLT-4, > 100 µM (inactive); in the assay on HCT-15, above 100 µM; with UO-31 it was > 100 µM (inactive); with RPMI-8226 it was > 100 µM (inactive); in the assay on SK-OV-3 it was > 100 µM (inactive). Besides, the GI50 in the assay on HOP-62 and in the assay with TK-10 was > 100 µM (inactive) throughout.
Consider `CC1=C(C(=O)CC(=O)C(=O)Nc2ccccc2)Sc2ccccc2N1`, for which the GI50 with COLO 205, in the assay on RXF 393, in the assay on IGROV-1, with SK-MEL-2, in the assay on 786-0 and in the assay with SF-295 was > 100 µM (inactive) throughout. Moreover, the GI50 was > 100 µM (inactive) in the assay on MOLT-4; above 100 µM with HCT-15; > 100 µM (inactive) with UO-31; > 100 µM (inactive) with RPMI-8226; > 100 µM (inactive) with SK-OV-3; > 100 µM (inactive) in the assay on HOP-62. For the same compound, in the assay with LOX IMVI, the GI50 was > 100 µM (inactive).
As to `CC(=O)OC1C2CCC1C1C2C2(Cl)C(Cl)=C(Cl)C1(Cl)C2(Cl)Cl` (stereo not drawn), the GI50 in the assay with CAKI-1 is 13.8 µM (inactive); with COLO 205, 15 µM (inactive); in the assay with RXF 393, 15.1 µM (inactive); in the assay with IGROV-1 it was 16.4 µM (inactive); with SK-MEL-2, 10.2 µM (inactive); with 786-0, 14.1 µM (inactive). The GI50 in the assay with SF-295 was 11.3 µM (inactive); in the assay with MOLT-4, 11 µM (inactive); with UO-31, 12.5 µM (inactive); with RPMI-8226 it was 6.05 µM (inactive); with SK-OV-3, 16 µM (inactive); in the assay on HOP-62, 15.5 µM (inactive). Also, the GI50 in the assay with LOX IMVI is 15.2 µM (inactive); with TK-10 it was 15.3 µM (inactive).
As for `C1CN2CCN3CCN4CCN1[PH]243`, the GI50 in the assay on COLO 205, with RXF 393, in the assay on IGROV-1, with SK-MEL-2, with 786-0 and with SF-295 was > 100 µM (inactive) each time. For the same compound, the GI50 is > 100 µM (inactive) with MOLT-4; above 100 µM with HCT-15; > 100 µM (inactive) in the assay with UO-31; > 100 µM (inactive) with RPMI-8226; > 100 µM (inactive) with SK-OV-3; > 100 µM (inactive) in the assay on HOP-62. The GI50 in the assay on LOX IMVI and with TK-10 was > 100 µM (inactive) each time.
Turning to `OC12c3ccccc3C1CCCCC2N1CCCC1` (stereo not drawn), the GI50 in the assay on COLO 205, with RXF 393, with SK-MEL-2, in the assay on 786-0, with SF-295 and with MOLT-4 was > 100 µM (inactive) in each case. Besides, the GI50 in the assay with HCT-15 is above 100 µM; with UO-31 it was > 100 µM (inactive); in the assay on RPMI-8226, > 100 µM (inactive); in the assay with SK-OV-3 it was > 100 µM (inactive); in the assay with HOP-62 it was > 100 µM (inactive); with LOX IMVI, > 100 µM (inactive). In addition, the GI50 in the assay with TK-10 was > 100 µM (inactive).
`O=C1OCCC1(Cc1ccc(Cl)cc1)Cc1ccc(Cl)cc1`: the GI50 in the assay with CAKI-1 was > 100 µM (inactive); with COLO 205, > 100 µM (inactive); with IGROV-1, > 100 µM (inactive); in the assay on SK-MEL-2 it was 71.8 µM (inactive); in the assay on 786-0, 64.6 µM (inactive); in the assay with SF-295, 34 µM (inactive). Besides, the GI50 in the assay on MOLT-4 is > 100 µM (inactive); with UO-31, 54.7 µM (inactive); with RPMI-8226, > 100 µM (inactive); with SK-OV-3 it was > 100 µM (inactive); with HOP-62, 31.3 µM (inactive); with TK-10 it was 46.8 µM (inactive).
`Cn1c2c(c3ccccc31)C1CCCCC1C1C(=O)NC(=O)C21` (stereo not drawn): the GI50 in the assay with COLO 205 is 39.9 µM (inactive); in the assay on RXF 393, 32.4 µM (inactive); with IGROV-1, > 100 µM (inactive); with 786-0 it was 65 µM (inactive); in the assay on SF-295, 57.7 µM (inactive); in the assay on MOLT-4, 21.8 µM (inactive). Also, the GI50 was 68.9 µM in the assay with HCT-15; 28.6 µM (inactive) in the assay on UO-31; 41.8 µM (inactive) with RPMI-8226; > 100 µM (inactive) in the assay on SK-OV-3; 33.1 µM (inactive) in the assay with LOX IMVI; > 100 µM (inactive) in the assay with TK-10.
